From patent publication US20040071799A1, “Herbal compositions and methods for effecting weight loss in humans” (priority 2001, published 2004)

How the values were obtained:
[1] = Female Wistar rats fed high fat diet for 56 days (Example 4); type: in vivo
Procedure: Sixty female Wistar rats, averaging 220 g in weight, were randomly allotted to five experimental groups and fed the high fat diet described in Table I below for 56 days. The rats were housed individually in wire mesh cages equipped with an automated watering system. The room housing the rats was maintained at a temperature of 22° to 24° C., with a light-dark cycle of 12 hours each. Following the one-week quarantine period the rats were adapted to handling, and to oral insertion of the gastric intubation device over the next ten days. Water was intubated once a day during this period. After ten days, the rats no longer indicated marked distress during the procedure.
After adaption to the intubation procedure, the diet of Table I was initiated. This diet is comprised of 56% of energy from fat. All treatment and placebo intubations occurred between 1600 and 1800 hours. Individual food intake was measured daily throughout the study. Body weight was measured daily through day 23 and twice weekly thereafter. The experimental period lasted 56 days. Lin, X., M. R. Chavex, R. C. Bruch, et al., J. Nutrition 128:1606-13, 1998.
Referring to Table II below, the five groups consisted of: the control group (n=15), which were fed ad libitum, and were intubated daily with 1 mL of water. The “low dose DRD” (n=10) and the “high dose DRD” (n=15) groups, which were fed ad libitum and administered daily 1 mL of the aqueous extract obtained from 0.75 grams and 1.50 grams of the initial dried herb mixture by intubation, respectively. The “fenfluramine group” (n=10), which was fed ad libitum and received 2 mg/kg fenfluramine in 1 mL of water daily, by intubation, and, finally, a fifth group (n=10) was pair-fed to the high dose DRD group and was administered 1 mL of water daily, by intubation.
Food consumption for all rats was determined daily, and body weights were obtained daily for the first 23 days, and then twice a week for the next 33 days. After 56 days all the rats except five from the control group and five from the high dose DRD group were sacrificed. Trunk blood was collected, and the eviscerated carcasses were homogenized, dried and assayed for body composition. White and brown fat depots, liver, kidney, spleen, heart, and gastrocnemius muscle were weighed. During the 56 days of the experiment, all rats were observed daily by the animal technician, and weekly by a veterinarian, and notations were made regarding physical activity/lethargy, fur condition, skin condition, eye condition, stools, and “others.” There were no noticeable differences among any of the groups with regard to physical activity, skin condition, and eye condition. […] This behavior lasted about one week and then stopped.
The serum was analyzed for insulin, corticosterone and leptin, using standard commercially available immunoassays for the rat. Alkaline phosphatase, alanine aminotransferase, amylase, aspartate aminotransferase, chloride, cholesterol, creatinine phosphokinase, γ-glutamyl transpeptidase, glucose, hemoglobin, hematocrit, mean cell volume, platelets, potassium, sodium, triglycerides, and white blood cells were assayed by standard clinical laboratory methods. All data were pooled by treatment and subjected to a One-Way Analysis of Variance (ANOVA) followed by a Scheffe Comparison of Means analysis (for unbalanced groups). Statistix® for Windows, 1998. Analytical Software, Tallahassee, Fla. 32317.
The rats that were not sacrificed and had previously received the high dose DRD had their treatment withdrawn during a 14-day “recovery period.” On the 15th day of this recovery period these rats, plus five control rats, were sacrificed and all the above analyses were conducted.

[2] = Young growing male Wistar rats fed obesity-inducing diet, 90 days (Example 3); type: in vivo; settings: fenfluramine group
Procedure: Young growing male Wistar rats, of about 220 grams average initial weight, were fed the obesity-inducing diet. Concomitantly, the rats were administered, 1.0 gram DRD, 1.5 grams DRD, or 5.0 grams DRD, by daily intubation, for 90 days. The treatment groups gained 21%, 24% and 47% less weight, respectively, than did the placebo controls. The rats administered fenfluramine gained 22% less weight than did the controls.
Thus, the prevention of weight gain appears to be due to a reduction in fat storage, and that the skeletal muscle had been preserved.

[3] = in vivo; cited from earlier work
[4] = d-fenfluramine 2 mg/kg, 56 days

For `CCNC(C)Cc1cccc(C(F)(F)F)c1` (centres unmarked) [fenfluramine], the “Average Final Weight, Gms ± SD.” value [1, 4] was 325.7 ± 33.7 Gms, the “Average Gain, Gms ± SD” value [1, 4] was 106.9 ± 22.0 Gms and the “calories required to cause a one-gram weight gain” value ([1]; fenfluramine) was 18.16 calories. The “food efficiency: gain in weight per calorie available for gain above maintenance” value ([1]; fenfluramine) was 0.0545 grams per calorie, the “less weight gained than controls” value ([1]; fenfluramine 2 mg/kg daily, 56th day) was 12.3% and the total food consumed ([1]; fenfluramine, 56 day period) was “consumed less total food over the 56 day period than the controls”. For the same compound, the “food efficiency lower than controls (grams gain per gram of food ingested)” value ([1]; fenfluramine, 56 days) was 7.8%, the “weight gained as fat (body composition)” value ([1]; fenfluramine, 56 days) was “gained significantly less fat than did the controls” and the serum leptin ([1]; fenfluramine, end of 56-day treatment) was “less leptin than controls”. The “less weight gained than controls” value [2] was 22%.

In the case of `CCCCCCCCCCC[C@@H](C[C@@H]1OC(=O)[C@H]1CCCCCC)OC(=O)[C@H](CC(C)C)NC=O` [Orlistat], the “decrease of the amount of fat absorbed from the diet” value [3] is given as “diet by 30%”.
